The values below come from US10072001B2, “Tank-binding kinase inhibitor compounds” (Gilead Sciences, Inc., priority 2014, dated 2018).

The term IC50 denotes the concentration that gives 50% inhibition.

One experiment addresses IKKε (Homo sapiens (Human), UniProt Q14164). The experiment can be described thus: TR-FRET kinase assay, IKKε. The experiment is classed as biochemical. Particulars: full length recombinant IKKε 0.3 nM, 2x Km ATP, 1 μM peptide, 240 min at 25° C.; geometric mean of minimum four determinations. The text has this: Biological Assay for TBK1 and IKKs:
For another experiment, the target named is TBK1 (Homo sapiens (Human), UniProt Q9UHD2). As to the kind of experiment: TR-FRET kinase assay, TBK1. Particulars: read-out: TBK1-IC50; full length recombinant TBK1 2.5 nM, 2x Km ATP, 1 μM peptide, 240 min at 25° C.; geometric mean of minimum four determinations. (In general: TR-FRET usually uses a lanthanide donor and a delayed reading to cut background.)
Sequence of TBK1 (Q9UHD2 whole entry): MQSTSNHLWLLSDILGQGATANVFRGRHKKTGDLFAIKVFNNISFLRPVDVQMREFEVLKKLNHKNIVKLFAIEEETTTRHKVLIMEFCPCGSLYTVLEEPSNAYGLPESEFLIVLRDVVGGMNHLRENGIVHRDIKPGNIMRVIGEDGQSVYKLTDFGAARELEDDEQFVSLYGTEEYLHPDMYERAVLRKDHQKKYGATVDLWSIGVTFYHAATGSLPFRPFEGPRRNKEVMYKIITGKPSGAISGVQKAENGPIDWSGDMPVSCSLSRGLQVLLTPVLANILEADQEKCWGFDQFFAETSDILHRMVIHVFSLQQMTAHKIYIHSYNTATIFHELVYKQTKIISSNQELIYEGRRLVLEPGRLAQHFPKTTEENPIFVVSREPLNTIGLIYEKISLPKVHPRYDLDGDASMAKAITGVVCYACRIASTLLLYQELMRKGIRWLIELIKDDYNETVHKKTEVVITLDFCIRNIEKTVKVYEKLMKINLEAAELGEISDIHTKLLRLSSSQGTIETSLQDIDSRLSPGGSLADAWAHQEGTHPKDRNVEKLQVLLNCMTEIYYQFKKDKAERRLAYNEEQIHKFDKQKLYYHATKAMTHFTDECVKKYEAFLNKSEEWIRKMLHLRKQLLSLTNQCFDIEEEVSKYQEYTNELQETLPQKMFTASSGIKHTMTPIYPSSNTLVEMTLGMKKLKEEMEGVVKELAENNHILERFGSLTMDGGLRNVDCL

Sequence of IKKε (Q14164 whole entry): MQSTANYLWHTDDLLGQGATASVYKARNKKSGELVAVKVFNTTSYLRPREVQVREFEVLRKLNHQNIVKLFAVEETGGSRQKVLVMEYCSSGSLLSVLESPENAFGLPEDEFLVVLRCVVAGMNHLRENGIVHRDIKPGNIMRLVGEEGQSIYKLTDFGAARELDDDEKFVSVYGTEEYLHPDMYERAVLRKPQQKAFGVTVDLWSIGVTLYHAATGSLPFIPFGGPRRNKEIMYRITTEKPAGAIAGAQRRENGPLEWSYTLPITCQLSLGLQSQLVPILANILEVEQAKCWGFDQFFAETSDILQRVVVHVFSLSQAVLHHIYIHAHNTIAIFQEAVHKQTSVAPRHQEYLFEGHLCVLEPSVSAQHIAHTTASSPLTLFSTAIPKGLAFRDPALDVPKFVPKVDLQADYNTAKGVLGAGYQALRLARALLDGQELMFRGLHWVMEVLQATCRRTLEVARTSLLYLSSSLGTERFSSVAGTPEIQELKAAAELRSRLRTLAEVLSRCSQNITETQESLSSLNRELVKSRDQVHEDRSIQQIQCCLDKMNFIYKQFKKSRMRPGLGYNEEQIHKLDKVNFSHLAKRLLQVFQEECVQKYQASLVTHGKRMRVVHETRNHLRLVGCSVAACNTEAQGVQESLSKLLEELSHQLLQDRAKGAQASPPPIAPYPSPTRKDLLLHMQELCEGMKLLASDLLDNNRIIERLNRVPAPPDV

Take `N#Cc1cc(-c2ncnc3[nH]c(-c4ccc(N5CCOCC5)cc4)nc23)ccc1O[C@@H]1CCNC1` [Example 207, (R)-5-(8-(4-morpholinophenyl)-9H-purin-6-yl)-2-(pyrrolidin-3-yloxy)benzonitrile]: the IC50 at IKKε was determined as 113 nM; at TBK1 it was 15.8 nM.
For `Cc1ncc(-c2cc3c(-c4ccc(OC5CCOCC5)c(C#N)c4)ncnc3[nH]2)s1` [Example 190, 5-(6-(2-methylthiazol-5-yl)-7H-pyrrolo[2,3-d]pyrimidin-4-yl)-2-((tetrahydro-2H-pyran-4-yl)oxy)benzonitrile] the same measures were 14.1 nM and 7.91 nM.
Taken in the same sequence, the figures for `O=C1NCc2cc(-c3ncnc4[nH]c(-c5ccc(N6CCOCC6)cc5)cc34)ccc21` [Example 221, 5-(6-(4-morpholinophenyl)-7H-pyrrolo[2,3-d]pyrimidin-4-yl)isoindolin-1-one] were 1000 nM and 1000 nM.
Taken in the same sequence, the figures for `COc1cc(-c2cc3c(-c4ccc(OC5CCOCC5)c(C#N)c4)ncnc3[nH]2)ccc1N1CCN(S(C)(=O)=O)CC1` [Example 135, 5-(6-(3-methoxy-4-(4-(methylsulfonyl)piperazin-1-yl)phenyl)-7H-pyrrolo[2,3-d]pyrimidin-4-yl)-2-((tetrahydro-2H-pyran-4-yl)oxy)benzonitrile] were 7.37 nM and 2.28 nM.
On to `N#Cc1cc(-c2ncnc3[nH]c(-c4ccc(N5CCOCC5)cc4)cc23)ccc1OC1CC2(COC2)C1` [Example 164, 2-(2-Oxaspiro[3.3]heptan-6-yloxy)-5-(6-(4-morpholinophenyl)-7H-pyrrolo[2,3-d]pyrimidin-4-yl)benzonitrile], for which the IC50 stood at 95.1 nM on IKKε and 56.1 nM on TBK1.
For `N#Cc1cc(-c2ccnc3[nH]c(-c4ccc(N5CCOCC5)cc4)cc23)ccc1O[C@@H]1CCN(C2COC2)C1` [Example 87, (R)-5-(2-(4-morpholinophenyl)-1H-pyrrolo[2,3-b]pyridin-4-yl)-2-((1-(oxetan-3-yl)pyrrolidin-3-yl)oxy)benzonitrile] the same measures were 63 nM and 26.8 nM.
For `CC(C)(C)OC(=O)N1CC=C(c2cc3c(-c4ccc(OC5CCOCC5)c(C#N)c4)ccnc3[nH]2)C1` [Example 36, tert-butyl 3-(4-(3-cyano-4-((tetrahydro-2H-pyran-4-yl)oxy)phenyl)-1H-pyrrolo[2,3-b]pyridin-2-yl)-2,5-dihydro-1H-pyrrole-1-carboxylate], the IC50 on IKKε came to 79 nM; at TBK1 it was 38.4 nM.
For `N#Cc1cc(-c2ncnc3[nH]c(-c4ccc(OCCN5CCCC5)cc4)nc23)ccc1OC1CCN(C(=O)CO)CC1` [Example 233, 2-((1-(2-hydroxyacetyl)piperidin-4-yl)oxy)-5-(8-(4-(2-(pyrrolidin-1-yl)ethoxy)phenyl)-9H-purin-6-yl)benzonitrile] the same measures were 2.04 nM and 3.33 nM.
For `N#Cc1cc(-c2ncnc3[nH]c(-c4ccc(C5CCN(CC(F)(F)F)CC5)cc4)nc23)ccc1OC1CCN(C=O)CC1` [Example 259, 2-((1-formylpiperidin-4-yl)oxy)-5-(8-(4-(1-(2,2,2-trifluoroethyl)piperidin-4-yl)phenyl)-9H-purin-6-yl)benzonitrile] the same measures were 45.5 nM and 12.2 nM.
Taken in the same sequence, the figures for `N#CCC(=O)N1CC[C@H](Oc2ccc(-c3ccnc4[nH]c(-c5ccc(N6CCOCC6)cc5)cc34)cc2C#N)C1` [Example 24, (S)-2-((1-(2-cyanoacetyl)pyrrolidin-3-yl)oxy)-5-(2-(4-morpholinophenyl)-1H-pyrrolo[2,3-b]pyridin-4-yl)benzonitrile] were 321 nM and 56.8 nM.
`CC1(COc2ccc(-c3ccnc4[nH]c(-c5ccc(N6CCOCC6)cc5)cc34)cc2C#N)COC1` [Example 12, 2-((3-methyloxetan-3-yl)methoxy)-5-(2-(4-morpholinophenyl)-1H-pyrrolo[2,3-b]pyridin-4-yl)benzonitrile]: the 50% inhibitory concentration (IC50) on IKKε was 41 nM; at TBK1, 14.1 nM.
With `N#Cc1cc(-c2ncnc3[nH]c(-c4ccc(N5CCOCC5)cc4)nc23)ccc1OC1CCN(S(N)(=O)=O)CC1` [Example 262, 4-(2-cyano-4-(8-(4-morpholinophenyl)-9H-purin-6-yl)phenoxy)piperidine-1-sulfonamide], the IC50 was 4.22 nM at IKKε and 2.08 nM at TBK1.
Consider `CN1CCN(C(=O)c2cc3c(-c4ccc(OC5CCOCC5)c(C#N)c4)ccnc3[nH]2)CC1` [Example 118, 5-(2-(4-methylpiperazine-1-carbonyl)-1H-pyrrolo[2,3-b]pyridin-4-yl)-2-((tetrahydro-2H-pyran-4-yl)oxy)benzonitrile], for which the IC50 worked out at 291 nM at IKKε and 1000 nM on TBK1.
Taken in the same sequence, the figures for `CC1CN(c2ccc(-c3nc4c(-c5ccc(OC6CCN(C(=O)CO)CC6)c(C#N)c5)ncnc4[nH]3)cc2)CCN1CCF` (centres unmarked) [Example 256, 5-(8-(4-(4-(2-fluoroethyl)-3-methylpiperazin-1-yl)phenyl)-9H-purin-6-yl)-2-((1-(2-hydroxyacetyl)piperidin-4-yl)oxy)benzonitrile] were 1.79 nM and 2.4 nM.
`N#Cc1cc(-c2ccnc3[nH]c(-c4ccc(N5CCOCC5)cc4)cc23)ccc1OC1COC1` [Example 235, 5-(2-(4-morpholinophenyl)-1H-pyrrolo[2,3-b]pyridin-4-yl)-2-(oxetan-3-yloxy)benzonitrile]: the concentration for half-maximal inhibition (IC50) amounted to 103 nM on IKKε and 9.27 nM on TBK1.
Turning to `N#Cc1cc(-c2ncnc3[nH]c(-c4ccc(N5CCOCC5)cc4)cc23)ccc1OC1CCNCC1` [Example 218, 5-(6-(4-morpholinophenyl)-7H-pyrrolo[2,3-d]pyrimidin-4-yl)-2-(piperidin-4-yloxy)benzonitrile], the IC50 was 140 nM at IKKε and 31.1 nM on TBK1.
For `N#Cc1cc(-c2ncnc3[nH]c(-c4ccc(=O)[nH]c4)cc23)ccc1OC1CCOCC1` [Example 183, 5-(6-(6-oxo-1,6-dihydropyridin-3-yl)-7H-pyrrolo[2,3-d]pyrimidin-4-yl)-2-((tetrahydro-2H-pyran-4-yl)oxy)benzonitrile] the same measures were 34.7 nM and 18.9 nM.
Consider `N#Cc1cc(-c2ccnc3[nH]c(-c4ccc(N5CCOCC5)cc4)nc23)ccc1O[C@@H]1CCNC1` [Example 195, (R)-5-(2-(4-morpholinophenyl)-3H-imidazo[4,5-b]pyridin-7-yl)-2-(pyrrolidin-3-yloxy)benzonitrile], for which the results for the half-inhibitory concentration (IC50) at IKKε and at TBK1 were 62.3 nM and 17.7 nM, respectively.
For `N#Cc1cc(-c2ccnc3[nH]c(-c4ccc(N5CCOCC5)cc4)cc23)ccc1O[C@@H]1CCN(C(=O)CO)C1` [Example 15, (R)-2-((1-(2-hydroxyacetyl)pyrrolidin-3-yl)oxy)-5-(2-(4-morpholinophenyl)-1H-pyrrolo[2,3-b]pyridin-4-yl)benzonitrile] the same measures were 2.45 nM and 1.34 nM.
Taken in the same sequence, the figures for `N#Cc1cc(-c2ccnc3[nH]c(C4=CCNC4)cc23)ccc1OC1CCOCC1` [Example 37, 5-(2-(2,5-dihydro-1H-pyrrol-3-yl)-1H-pyrrolo[2,3-b]pyridin-4-yl)-2-((tetrahydro-2H-pyran-4-yl)oxy)benzonitrile] were 46.3 nM and 13.4 nM.
As for `COc1ccc(-c2ccnc3[nH]c(-c4ccc(N5CCOCC5)cc4)cc23)cc1C#N` [Example 34, 2-methoxy-5-(2-(4-morpholinophenyl)-1H-pyrrolo[2,3-b]pyridin-4-yl)benzonitrile], the concentration for half-maximal inhibition (IC50) was above 1000 nM at IKKε and 89.8 nM at TBK1.
Taken in the same sequence, the figures for `CNC(=O)c1ccc(-c2cc3c(-c4ccc(OC5CCOCC5)c(C#N)c4)ccnc3[nH]2)cc1` [Example 41, 4-(4-(3-cyano-4-((tetrahydro-2H-pyran-4-yl)oxy)phenyl)-1H-pyrrolo[2,3-b]pyridin-2-yl)-N-methylbenzamide] were 5.59 nM and 3.08 nM.
On to `N#Cc1cc(-c2ccnc3[nH]c(-c4ccc5c(c4)C(=O)NC5)cc23)ccc1OC1CCOCC1` [Example 74, 5-(2-(3-oxoisoindolin-5-yl)-1H-pyrrolo[2,3-b]pyridin-4-yl)-2-((tetrahydro-2H-pyran-4-yl)oxy)benzonitrile], for which the IC50 at IKKε was above 1000 nM; at TBK1 it was 9.62 nM.
For `N#Cc1cc(-c2ccnc3[nH]c(-c4ccc(N5CCOCC5)cc4)nc23)ccc1OCC1CC1` [Example 301, 2-(cyclopropylmethoxy)-5-(2-(4-morpholinophenyl)-3H-imidazo[4,5-b]pyridin-7-yl)benzonitrile] the same measures were above 1000 nM and 43.5 nM.
Taken in the same sequence, the figures for `COc1ccc(-c2cc3c(-c4ccc(OC5CCN(C(=O)CO)CC5)c(C#N)c4)ncnc3[nH]2)c(C)c1` [Example 131, 2-((1-(2-hydroxyacetyl)piperidin-4-yl)oxy)-5-(6-(4-methoxy-2-methylphenyl)-7H-pyrrolo[2,3-d]pyrimidin-4-yl)benzonitrile] were 12.4 nM and 5.68 nM.
Regarding `N#Cc1cc(-c2ccnc3[nH]c(-c4ccc(N5CCOCC5)cc4)cc23)ccc1N1CC(O)C1` [Example 193, 2-(3-hydroxyazetidin-1-yl)-5-(2-(4-morpholinophenyl)-1H-pyrrolo[2,3-b]pyridin-4-yl)benzonitrile], the 50% inhibitory concentration (IC50) at IKKε worked out at 15.5 nM; on TBK1, 3.33 nM.
For the compound `N#Cc1cc(-c2ncnc3[nH]c(-c4ccc(C(=O)N5CCOCC5)cc4)cc23)ccc1OC1CCN(C(=O)CO)CC1` [Example 160, 2-((1-(2-Hydroxyacetyl)piperidin-4-yl)oxy)-5-(6-(4-(morpholine-4-carbonyl)phenyl)-7H-pyrrolo[2,3-d]pyrimidin-4-yl)benzonitrile], the IC50 was 2.33 nM at IKKε and 1.32 nM on TBK1.
Taken in the same sequence, the figures for `N#Cc1nc(-c2ccnc3[nH]c(-c4ccc(N5CCOCC5)cc4)nc23)ccc1OC1CCOCC1` [Example 304, 6-(2-(4-morpholinophenyl)-3H-imidazo[4,5-b]pyridin-7-yl)-3-((tetrahydro-2H-pyran-4-yl)oxy)picolinonitrile] were 18.6 nM and 9.25 nM.
